Assay results reported in ChEMBL document CHEMBL3832761, “MMV Pathogen Box Bioactivity Data” (2017).
Values after ≈ are worked out from the molar mass of the structure shown.

Tests used:
Format in all cases: functional
[1] = tested on: Mycobacterium tuberculosis; test: AntiMycobacterium tuberculosis activity Non-Replicating form: Average MIC90 (uM)
[2] = tested on: Mycobacterium tuberculosis; test: AntiMycobacterium tuberculosis activity 1-week GAST/Fe MIC (uM); conditions: 168 h
[3] = tested on: Mycobacterium tuberculosis; test: AntiMycobacterium tuberculosis activity 2-week GAST/Fe MIC (uM); conditions: 336 h
[4] = tested on: Mycobacterium tuberculosis; test: AntiMycobacterium tuberculosis activity 1-week 7H9/ADC/Tw MIC (uM); conditions: 168 h
[5] = tested on: Mycobacterium tuberculosis; test: AntiMycobacterium tuberculosis activity 2-week 7H9/ADC/Tw MIC (uM); conditions: 336 h
[6] = tested on: Mycobacterium tuberculosis; test: AntiMycobacterium tuberculosis activity 2-week Alamar Blue 7H9/ADC/Tw MIC (uM); conditions: 336 h
[7] = tested on: Mycobacterium tuberculosis; test: AntiMycobacterium tuberculosis activity 1-week 7H9/glucose/BSA/Tx MIC (uM); conditions: 168 h
[8] = tested on: Mycobacterium tuberculosis; test: AntiMycobacterium tuberculosis activity 2-week 7H9/glucose/BSA/Tx MIC (uM); conditions: 336 h
[9] = tested on: Mycobacterium tuberculosis; test: AntiMycobacterium tuberculosis activity 1-week 7H9/DPPC/cholesterol/BSA/Tx MIC (uM); conditions: 168 h
[10] = tested on: Mycobacterium tuberculosis; test: AntiMycobacterium tuberculosis activity 2-week 7H9/DPPC/cholesterol/BSA/Tx MIC (uM); conditions: 336 h
[11] = tested on: Mycobacterium tuberculosis; test: AntiMycobacterium tuberculosis activity 1-week 7H9/cholesterol/BSA/Tx MIC (uM); conditions: 168 h
[12] = tested on: Mycobacterium tuberculosis; test: AntiMycobacterium tuberculosis activity 2-week Alamar Blue 7H9/cholesterol/BSA/Tx MIC (uM); conditions: 336 h
[13] = tested on: Mycobacterium tuberculosis; test: (§1) AntiMycobacterium tuberculosis activity day 10 in 7H9/2.5mM butyrate/pH6/0.1mM nitrite MIC90 (uM); conditions: 240 h
[14] = tested on: Mycobacterium tuberculosis; test: AntiMycobacterium tuberculosis activity day 21 in 7H9/2.5mM butyrate/pH6/0.1mM nitrite MIC90 (uM); conditions: 504 h
[15] = tested on: Mycobacterium tuberculosis; test: as §1; conditions: 240 h; remark: listed apart in the source
[16] = tested on: Mycobacterium tuberculosis; test: AntiMycobacterium tuberculosis activity day 21 MIC99 in 7H9/2.5mM butyrate/pH6/0.1mM nitrite MIC99 (uM); conditions: 504 h
[17] = tested on: Mycobacterium tuberculosis; test: AntiMycobacterium tuberculosis activity Replicating form: Average MIC90 (uM)
[18] = tested on: HepG2; test: HepG2 CC50 (uM) Cytotoxicity; conditions: Homo sapiens

Compound | MIC90 [1] | MIC [2] | MIC [3] | MIC [4] | MIC [5] | MIC [6] | MIC [7] | MIC [8] | MIC [9] | MIC [10] | MIC [11] | MIC [12] | MIC90 [13] | MIC90 [14] | MIC90 [15] | MIC [16] | MIC90 [17] | CC50 [18]
O=C(C1CCN(c2nnc(-n3cccc3)s2)CC1)N1CCC(Cc2ccccc2)CC1 | 0.8 µM (≈ 0.348 µg/mL) | 0.02 µM (≈ 0.00871 µg/mL) | 0.02 µM (≈ 0.00871 µg/mL) | 0.1 µM (≈ 0.0436 µg/mL) | 0.07 µM (≈ 0.0305 µg/mL) | 0.07 µM (≈ 0.0305 µg/mL) | 0.1 µM (≈ 0.0436 µg/mL) | 0.1 µM (≈ 0.0436 µg/mL) | 0.02 µM (≈ 0.00871 µg/mL) | 0.04 µM (≈ 0.0174 µg/mL) | 0.02 µM (≈ 0.00871 µg/mL) | 0.05 µM (≈ 0.0218 µg/mL) | 0.19 µM (≈ 0.0828 µg/mL) | 0.19 µM (≈ 0.0828 µg/mL) | 0.78 µM (≈ 0.34 µg/mL) | 0.78 µM (≈ 0.34 µg/mL) | 0.94 µM (≈ 0.409 µg/mL) | > 100 µM
O=C(NCc1ccoc1)N1CCN(Cc2ccc3c(c2)OCO3)CC1 | 57.1 µM (≈ 19.6 µg/mL) | 0.39 µM (≈ 0.134 µg/mL) | 0.78 µM (≈ 0.268 µg/mL) | > 50 µM | > 50 µM | 6.25 µM (≈ 2.15 µg/mL) | 37 µM (≈ 12.7 µg/mL) | > 50 µM | 4.7 µM (≈ 1.61 µg/mL) | 25 µM (≈ 8.58 µg/mL) | 3.13 µM (≈ 1.07 µg/mL) | 2.3 µM (≈ 0.79 µg/mL) | 6.25 µM (≈ 2.15 µg/mL) | 25 µM (≈ 8.58 µg/mL) | 6.25 µM (≈ 2.15 µg/mL) | 25 µM (≈ 8.58 µg/mL) | > 100 µM | > 100 µM
CCC(Sc1nc2ccccc2o1)C(=O)Nc1nnc(C)s1 (configuration not stated) | 4.49 µM (≈ 1.5 µg/mL) | 9.4 µM (≈ 3.14 µg/mL) | 12.5 µM (≈ 4.18 µg/mL) | > 50 µM | > 50 µM | > 50 µM | > 50 µM | > 50 µM | > 50 µM | > 50 µM | > 50 µM | > 50 µM | 50 µM (≈ 16.7 µg/mL) | 50 µM (≈ 16.7 µg/mL) | > 50 µM | > 50 µM | 68.4 µM (≈ 22.9 µg/mL) | > 100 µM
O=C(Nc1nc(-c2ccccn2)cs1)c1cncn1-c1ccccc1 | 32.5 µM (≈ 11.3 µg/mL) | 1.56 µM (≈ 0.542 µg/mL) | 3.13 µM (≈ 1.09 µg/mL) | 19 µM (≈ 6.6 µg/mL) | 25 µM (≈ 8.69 µg/mL) | 19 µM (≈ 6.6 µg/mL) | 19 µM (≈ 6.6 µg/mL) | 25 µM (≈ 8.69 µg/mL) | 9.4 µM (≈ 3.27 µg/mL) | 25 µM (≈ 8.69 µg/mL) | 9.4 µM (≈ 3.27 µg/mL) | 12.5 µM (≈ 4.34 µg/mL) | 6.25 µM (≈ 2.17 µg/mL) | 12.5 µM (≈ 4.34 µg/mL) | > 50 µM | > 50 µM | 82.7 µM (≈ 28.7 µg/mL) | 3.8 µM
Nc1ncnc2c1ncn2[C@@H]1O[C@H](COS(=O)(=O)NC(=O)c2ccccc2O)[C@@H](O)[C@H]1O | > 100 µM | 0.3 µM (≈ 0.14 µg/mL) | 0.6 µM (≈ 0.28 µg/mL) | > 50 µM | > 50 µM | 9.4 µM (≈ 4.38 µg/mL) | > 50 µM | > 50 µM | > 50 µM | > 50 µM | > 50 µM | > 50 µM | > 50 µM | > 50 µM | > 50 µM | > 50 µM | > 100 µM | > 100 µM
COc1cccc(OCC(=O)c2ccc(Br)cc2)c1 | > 100 µM | 9.4 µM (≈ 3.02 µg/mL) | 9.4 µM (≈ 3.02 µg/mL) | 19 µM (≈ 6.1 µg/mL) | 50 µM (≈ 16.1 µg/mL) | 25 µM (≈ 8.03 µg/mL) | 19 µM (≈ 6.1 µg/mL) | 50 µM (≈ 16.1 µg/mL) | 19 µM (≈ 6.1 µg/mL) | 50 µM (≈ 16.1 µg/mL) | 12.5 µM (≈ 4.01 µg/mL) | 50 µM (≈ 16.1 µg/mL) | 12.5 µM (≈ 4.01 µg/mL) | 25 µM (≈ 8.03 µg/mL) | 25 µM (≈ 8.03 µg/mL) | 50 µM (≈ 16.1 µg/mL) | > 100 µM | > 100 µM
Cc1cc(Cl)ccc1NC(=O)CCc1ccc(S(=O)(=O)NCC(C)C)cc1 | 13.4 µM (≈ 5.49 µg/mL) | 2.3 µM (≈ 0.941 µg/mL) | 2.3 µM (≈ 0.941 µg/mL) | 4.7 µM (≈ 1.92 µg/mL) | 6.25 µM (≈ 2.56 µg/mL) | 6.25 µM (≈ 2.56 µg/mL) | 4.7 µM (≈ 1.92 µg/mL) | 6.25 µM (≈ 2.56 µg/mL) | 3.13 µM (≈ 1.28 µg/mL) | 3.13 µM (≈ 1.28 µg/mL) | 3.13 µM (≈ 1.28 µg/mL) | 6.25 µM (≈ 2.56 µg/mL) | > 50 µM | 25 µM (≈ 10.2 µg/mL) | > 50 µM | 50 µM (≈ 20.4 µg/mL) | 14.4 µM (≈ 5.87 µg/mL) | > 100 µM
O=C(c1[nH]nc2c1CCCC2)N1CCN(Cc2ccc3c(c2)OCO3)CC1 | > 15.5 µM | 0.39 µM (≈ 0.144 µg/mL) | 0.78 µM (≈ 0.287 µg/mL) | > 50 µM | > 50 µM | 4.7 µM (≈ 1.73 µg/mL) | 37 µM (≈ 13.6 µg/mL) | > 50 µM | 4.7 µM (≈ 1.73 µg/mL) | 19 µM (≈ 7 µg/mL) | 0.78 µM (≈ 0.287 µg/mL) | 1.56 µM (≈ 0.575 µg/mL) | 1.5 µM (≈ 0.553 µg/mL) | 6.25 µM (≈ 2.3 µg/mL) | > 50 µM | > 50 µM | > 100 µM | > 100 µM
Cc1nn(Cc2ccccc2)c(Cl)c1C(=O)NC1CCCCCC1 | 5.96 µM (≈ 2.06 µg/mL) | 0.39 µM (≈ 0.135 µg/mL) | 0.39 µM (≈ 0.135 µg/mL) | 19 µM (≈ 6.57 µg/mL) | 50 µM (≈ 17.3 µg/mL) | 6.25 µM (≈ 2.16 µg/mL) | 37 µM (≈ 12.8 µg/mL) | > 50 µM | 4.7 µM (≈ 1.63 µg/mL) | 6.25 µM (≈ 2.16 µg/mL) | 1.56 µM (≈ 0.54 µg/mL) | 2.3 µM (≈ 0.796 µg/mL) | 3.12 µM (≈ 1.08 µg/mL) | 25 µM (≈ 8.65 µg/mL) | 3.12 µM (≈ 1.08 µg/mL) | 25 µM (≈ 8.65 µg/mL) | > 100 µM | > 100 µM
